Patent US5700478A, “Water-soluble pressure-sensitive mucoadhesive and devices provided therewith for emplacement in a mucosa-lined body cavity” (Cygnus, Inc., priority 1995, dated 1997)
Structures can show the parent of a compound that is named as a salt.

Columns and labels:
[1] = Transport through pig mucosa (Franz diffusion cells); format: in vitro ADME, porcine
Description: In this example, bilaminate mucoadhesive discs, containing as an active substance benzocaine or Dyclonine HCl, were affixed to porcine buccal mucosa and mounted on Franz diffusion cells as described in Example XIII. Avenge amounts of active substance was measured using HPLC, and percents were expressed as a percent of the total initially in the disc.
Particularly, the donor side of the cell was filled with pH 6 buffer and the receiver side was filled with phosphate buffered saline ("PBS"). Samples were taken from the receiver side every thirty minutes for three hours, and the samples were analyzed by HPLC. The average amount and the average percent of active substance appearing in the receiver side after three hours are shown in Table IV.

[2] = Release of benzocaine into distilled water: effect of polymer molecular weight; format: physicochemical; conditions: HPC 80 k vs. 300 k in active-containing layer, FIG. 11
Description: In this Example, bilaminate mucoadhesive discs containing benzocaine were constructed generally as described in Example IX, substituting benzocaine for Dyclonine. Discs were made using HPC both at the same molecular weight as described in Example 2 (80 k), and at a higher molecular weight (300 k), and the release into distilled water was tested as described in Example X. The results are shown in FIG. 11.

[3] = Transport through human stratum corneum (Franz diffusion cells); format: in vitro ADME
Description: In this example, bilaminate mucoadhesive discs, containing as an active substance benzocaine or Dyclonine HCl, were affixed to human stratum corneum and mounted on Franz diffusion cells. The donor side of the cell was filled with pH 6 buffer and the receiver side was filled with PBS. Samples were taken from the receiver side and analyzed using HPLC, and the average amount and percentage of active substance appearing in the receiver cell were determined.

Row | Average % Transported ([1]; 15% in bilaminate disc, % of drug initially in device, three hours, donor pH 6 buffer, receiver PBS) [%] | Average Amount Delivered ([1]; pH 6) [μg/cm^2] | Average % Transported ([3]; 15% in bilaminate disc, donor pH 6 buffer, receiver PBS) [%] | Average Amount Delivered ([3]; pH 6) [μg/cm^2] | Average % Transported ([1]; pH 6) [%] | Average % Transported ([3]; pH 6) [%] | Structure (SMILES) | release rate of benzocaine vs. molecular weight of HPC [2]
1 | 3.29 | 284.63 | 2.42 | 255.56 |  |  | CCOC(=O)c1ccc(N)cc1 [Benzocaine, benzocaine] | decrease in release rate of benzocaine with increasing molecular weight of HPC
2 |  | 282.77 |  | 14.60 | 3.94 | 0.18 | CCCCOc1ccc(C(=O)CCN2CCCCC2)cc1 [Dyclonine HCl] | 
